Data taken from patent US10308683B2, “Bicyclic lipolantipeptide, preparation and use as antimicrobial agent” (priority 2015, dated 2019).

What was measured:
[1] = system: E. faecium 31430797 (Van B resistant); settings: Table 3, Gram-positive aerobe
[2] = system: S. epidermidis 31435861 (Methicillin resistant); settings: Table 3, Gram-positive aerobe
[3] = system: E. faecium 31152980 (Van A resistant); settings: Table 3, Gram-positive aerobe
S. aureus - USA300 = settings: Table 2
[4] = system: S. pneumoniae 6883 (Penicillin resistant); settings: Table 3, Gram-positive aerobe
[5] = system: S. aureus - ATCC 1683 (Methicillin resistant); settings: for Minimal Inhibitory Concentration (MIC): Table 2, S. aureus - ATCC 1683 (Methicillin resistant)
M. tuberculosis H37Rv = settings: Table 3, Mycobacteria
[6] = system: E. faecium ATCC1858 (Vancomycin (Van) sensitive); settings: Table 3, Gram-positive aerobe
Protocol: (§1) Methods for Dilution Antibacterial Susceptibility Tests for Bacteria That Grow Aerobically; Approved Standard—Tenth Edition (2015). Clinical and Laboratory Standards Institute Document M07-A10. • 2. Methods for Antimicrobial Susceptibility Testing of Anaerobic Bacteria; Approved Standard—Eighth Edition (2012). Clinical and Laboratory Standards Institute Document M11-A8. • 3. Antimycobacterial activity was determined as described in Journal of Clinical Microbiology (2009, 47:1773-1780) by Springer et al. Quantitative drug susceptibility testing of Mycobacterium tuberculosis by use of MGIT 960 and EpiCenter Instrumentation.

S. oralis 39151368 = settings: Table 3, Gram-positive aerobe
Protocol: as §1

[7] = system: S. pneumoniae - ATCC 33400; settings: Table 2
Protocol: as §1

P. acnes 1201 = settings: Table 3, Gram-positive anaerobe
Protocol: as §1

[8] = system: S. pneumoniae R119 (R6 like) (Penicillin sensitive); settings: Table 3, Gram-positive aerobe
Protocol: as §1

[9] = system: S. epidermidis 37361192 (Methicillin sensitive); settings: Table 3, Gram-positive aerobe
Protocol: as §1

C. difficile ATCC 700057 = settings: Table 3, Gram-positive anaerobe
Protocol: as §1

S. mitis 39050149 = settings: Table 3, Gram-positive aerobe
Protocol: as §1

S. agalactiae 31432663 = settings: Table 3, Gram-positive aerobe
Protocol: as §1

S. pyogenes 37352281 = settings: Table 3, Gram-positive aerobe
Protocol: as §1

[10] = system: S. aureus - ATCC 13709 (Fully susceptible); experiment: MIC, CLSI dilution susceptibility test (aerobic); type: cell-based; settings: for Minimal Inhibitory Concentration (MIC): Table 2, S. aureus - ATCC 13709 (Fully susceptible)
Source text: Clinical and Laboratory Standards Institute Document M07-A10. • 2. […] Clinical and Laboratory Standards Institute Document M11-A8. • 3.

| Compound | MIC [1] [µg/mL] | MIC [2] [µg/mL] | MIC [3] [µg/mL] | Minimal Inhibitory Concentration (MIC) (S. aureus - USA300) [µg/mL] | MIC [4] [µg/mL] | Minimal Inhibitory Concentration (MIC) [5] [µg/mL] | MIC ([5]; Table 3, Gram-positive aerobe, S. aureus ATCC1683, Methicillin resistant) [µg/mL] | MIC (M. tuberculosis H37Rv) [µg/mL] | MIC [6] [µg/mL] | MIC (S. oralis 39151368) [µg/mL] | Minimal Inhibitory Concentration (MIC) [7] [µg/mL] | MIC (P. acnes 1201) [µg/mL] | MIC [8] [µg/mL] | MIC [9] [µg/mL] | MIC (C. difficile ATCC 700057) [µg/mL] | MIC (S. mitis 39050149) [µg/mL] | MIC (S. agalactiae 31432663) [µg/mL] | MIC (S. pyogenes 37352281) [µg/mL] | Minimal Inhibitory Concentration (MIC) [10] [µg/mL] | MIC ([10]; Table 3, Gram-positive aerobe, S. aureus ATCC13709, Methicillin sensitive) [µg/mL] |
| --- | --- | --- | --- | --- | --- | --- | --- | --- | --- | --- | --- | --- | --- | --- | --- | --- | --- | --- | --- | --- |
| C/N=C(\NC)NCCCCCCCCCCCCCCCCC(=O)NC(C)C(=O)NC1CC2(CS/C=C\NC(=O)C(CO)NC(=O)C(CCC(N)=O)NC2=O)NC(=O)CNC(=O)C(CC(C)C)NC1=O (stereo not drawn) [Compound C] | ≤0.25 | ≤0.25 | ≤0.25 | ≤0.08 | ≤0.125 | ≤0.3 | ≤0.3 | ≤1 | ≤0.5 | ≤0.25 | ≤0.08 | ≤0.06 | ≤0.125 | ≤0.25 | ≤0.25 | ≤0.25 | ≤0.25 | ≤0.5 | ≤0.04 | ≤0.04 |
| C/N=C(\NC)NCCCCCCCCCCCCCCC(=O)NC(C)C(=O)NC1CC2(CS/C=C\NC(=O)C(CO)NC(=O)C(CCC(N)=O)NC2=O)NC(=O)CNC(=O)C(CC(C)C)NC1=O (stereo not drawn) [Compound A] | – | – | – | ≤0.08 | – | ≤0.3 | – | – | – | – | ≤0.15 | – | – | – | – | – | – | – | ≤0.04 | – |
